pIC50: −log10 of the molar value.
What was measured:
[1] = tested on: M-07e cell line; experiment: M-07e cell proliferation stimulated by SCF (CellTiter-Glo growth inhibition); format: cell-based; settings: 72 h, SCF 100 ng/ml, three days, CellTiter-Glo luminescence, read-out: IC50, growth inhibition of SCF stimulated M-07e cells
Method: This inhibition is measured by the effect of compound concentration on cell growth to assess IC50 values. M-07e cells were seeded at 5×10^4 cells per well of a 96 well cell culture plate in 50 μl of cell culture medium of Iscove's Medium 1× (MOD, CellGro Mediatech catalog #15-016-CV) supplemented with 10% FBS (HyClone catalog #SH30071.03). […] Cells were also treated with staurosporine as a positive control. Cells were stimulated by adding 20 μl of 600 ng/ml SCF to a final concentration of 100 ng/ml (Biosource International SCF kit ligand catalog #PHC2115) in cell culture medium. The cells were incubated at 37° C., 5% CO2 for three days. CellTiter-Glo Buffer (Promega Cell Viability Assay catalog #G7573) and substrate were equilibrated to room temperature, and enzyme/substrate Recombinant Firefly Luciferase/Beetle Luciferin was reconstituted. The cell plates were equilibrated to room temperature for 30 minutes, then lysed by addition of an equivalent volume of the Celltiter-Glo Reagent. […] The plates were read on a Victor Wallac II using Luminescence protocol modified to read 0.1 s per well. The luminescence reading assesses the ATP content, which correlates directly with cell number such that the reading as a function of compound concentration is used to determine the IC50 value.

[2] = tested on: cells with activating c-Kit mutations in the catalytic region; settings: Ma et al., 2002; cited from earlier work

Row | Structure (SMILES) | pIC50 [1] | inhibition of cells with c-Kit mutations in the catalytic region [2]
1 | FC(F)(F)c1ccc(CNc2ccc(Cc3c[nH]c4ncccc34)cn2)cc1 [Compound 1-3, [5-(1H-Pyrrolo[2,3-b]pyridin-3-ylmethyl)-pyridin-2-yl]-(4-trifluoromethyl-benzyl)-amine] | > 6.00 | 
2 | Cc1ccc(NC(=O)c2ccc(CN3CCN(C)CC3)cc2)cc1Nc1nccc(-c2cccnc2)n1 [ST1571] |  | did not inhibit the cells
